Experimental data published in patent publication US6495715B2, “Calcium channel blockers” (Warner-Lambert Company, priority 1997, dated 2002).
Where a name gives a salt, the structure may show the parent alone.

What was measured:
DBA/2 mice = experiment: Audiogenic seizure (anticonvulsant) test in DBA/2 mice; format: in vivo; conditions: Mus musculus; 30 mg/kg, intravenous, sound-induced tonic seizures, tested 15 or 45 minutes after injection; read-out: DBA/2 mice % Protection
Experimental: In vivo Biological Protocol:
A compound of the present invention was dissolved in water using 10% (weight/volume) Emulphor (GAF Corp., Wayne, N.J.) surfactant. Substances were administered by intravenous injection into the retro-orbital venous sinus. All testing was performed 15 minutes or 45 minutes after drug injection. All the male mice, 3-4 weeks old were obtained from Jackson Laboratories Bar Harbour, Me. Immediately before anticonvulsant testing, mice were placed upon a wire mesh, 4 inches square suspended from a steel rod. The square was slowly inverted through 180 degrees and mice observed for 30 seconds. Any mouse falling from the wire mesh was scored as ataxia.
Mice were placed into an enclosed acrylic plastic chamber (21 cm height, approximately 30 cm diameter) with a high-frequency speaker (4 cm diameter) in the center of the top lid. An audio signal generator (Protek model B-810) was used to produce a continuous sinusoidal tone that was swept linearly in frequency between 8 kHz and 16 kHz once each 10 msec. The average sound pressure level (SPL) during stimulation was approximately 100 dB at the floor of the chamber. Mice were placed within the chamber and allowed to acclimatize for 1 minute. DBA/2 mice in the vehicle-treated group responded to the sound stimulus (applied until tonic extension occurred, or for a maximum of 60 sec) with a characteristic seizure sequence consisting of wild running followed by clonic seizures, and later by tonic extension, and finally by respiratory arrest and death in 80% or more of the mice. In vehicle-treated mice, the entire sequence of seizures to respiratory arrest lasts approximately 15-20 seconds.
The incidence of all the seizure phases in the drug-treated and vehicle-treated mice was recorded, and the occurrence of tonic seizures were used for calculating anticonvulsant ED50 values by probit analysis. Mice were used only once for testing at each time and dose point.

N-type Ca2+ channel = target: T1, N-type Ca2+ channel (Homo sapiens, UniProt Q00975); experiment: Measurement of N-type Ca2+ channel blocking potencies in IMR-32 cells using the fluorescent Ca2+ indicator Indo-1; format: cell-based; conditions: for IC50: K+-stimulated Ca2+ flux, 5 μM nitrendipine to block L-type channels; for inhibition at 1 µM: read-out: IMR 32 % of Blockade @ 1 μM; for inhibition at 10 µM: read-out: IMR 32 % of Blockade @ 10 μM
T1 construct: host or cells: IMR-32 cells, differentiated with dibutyryl cAMP and bromodeoxyuridine
T1 sequence (Q00975 whole entry): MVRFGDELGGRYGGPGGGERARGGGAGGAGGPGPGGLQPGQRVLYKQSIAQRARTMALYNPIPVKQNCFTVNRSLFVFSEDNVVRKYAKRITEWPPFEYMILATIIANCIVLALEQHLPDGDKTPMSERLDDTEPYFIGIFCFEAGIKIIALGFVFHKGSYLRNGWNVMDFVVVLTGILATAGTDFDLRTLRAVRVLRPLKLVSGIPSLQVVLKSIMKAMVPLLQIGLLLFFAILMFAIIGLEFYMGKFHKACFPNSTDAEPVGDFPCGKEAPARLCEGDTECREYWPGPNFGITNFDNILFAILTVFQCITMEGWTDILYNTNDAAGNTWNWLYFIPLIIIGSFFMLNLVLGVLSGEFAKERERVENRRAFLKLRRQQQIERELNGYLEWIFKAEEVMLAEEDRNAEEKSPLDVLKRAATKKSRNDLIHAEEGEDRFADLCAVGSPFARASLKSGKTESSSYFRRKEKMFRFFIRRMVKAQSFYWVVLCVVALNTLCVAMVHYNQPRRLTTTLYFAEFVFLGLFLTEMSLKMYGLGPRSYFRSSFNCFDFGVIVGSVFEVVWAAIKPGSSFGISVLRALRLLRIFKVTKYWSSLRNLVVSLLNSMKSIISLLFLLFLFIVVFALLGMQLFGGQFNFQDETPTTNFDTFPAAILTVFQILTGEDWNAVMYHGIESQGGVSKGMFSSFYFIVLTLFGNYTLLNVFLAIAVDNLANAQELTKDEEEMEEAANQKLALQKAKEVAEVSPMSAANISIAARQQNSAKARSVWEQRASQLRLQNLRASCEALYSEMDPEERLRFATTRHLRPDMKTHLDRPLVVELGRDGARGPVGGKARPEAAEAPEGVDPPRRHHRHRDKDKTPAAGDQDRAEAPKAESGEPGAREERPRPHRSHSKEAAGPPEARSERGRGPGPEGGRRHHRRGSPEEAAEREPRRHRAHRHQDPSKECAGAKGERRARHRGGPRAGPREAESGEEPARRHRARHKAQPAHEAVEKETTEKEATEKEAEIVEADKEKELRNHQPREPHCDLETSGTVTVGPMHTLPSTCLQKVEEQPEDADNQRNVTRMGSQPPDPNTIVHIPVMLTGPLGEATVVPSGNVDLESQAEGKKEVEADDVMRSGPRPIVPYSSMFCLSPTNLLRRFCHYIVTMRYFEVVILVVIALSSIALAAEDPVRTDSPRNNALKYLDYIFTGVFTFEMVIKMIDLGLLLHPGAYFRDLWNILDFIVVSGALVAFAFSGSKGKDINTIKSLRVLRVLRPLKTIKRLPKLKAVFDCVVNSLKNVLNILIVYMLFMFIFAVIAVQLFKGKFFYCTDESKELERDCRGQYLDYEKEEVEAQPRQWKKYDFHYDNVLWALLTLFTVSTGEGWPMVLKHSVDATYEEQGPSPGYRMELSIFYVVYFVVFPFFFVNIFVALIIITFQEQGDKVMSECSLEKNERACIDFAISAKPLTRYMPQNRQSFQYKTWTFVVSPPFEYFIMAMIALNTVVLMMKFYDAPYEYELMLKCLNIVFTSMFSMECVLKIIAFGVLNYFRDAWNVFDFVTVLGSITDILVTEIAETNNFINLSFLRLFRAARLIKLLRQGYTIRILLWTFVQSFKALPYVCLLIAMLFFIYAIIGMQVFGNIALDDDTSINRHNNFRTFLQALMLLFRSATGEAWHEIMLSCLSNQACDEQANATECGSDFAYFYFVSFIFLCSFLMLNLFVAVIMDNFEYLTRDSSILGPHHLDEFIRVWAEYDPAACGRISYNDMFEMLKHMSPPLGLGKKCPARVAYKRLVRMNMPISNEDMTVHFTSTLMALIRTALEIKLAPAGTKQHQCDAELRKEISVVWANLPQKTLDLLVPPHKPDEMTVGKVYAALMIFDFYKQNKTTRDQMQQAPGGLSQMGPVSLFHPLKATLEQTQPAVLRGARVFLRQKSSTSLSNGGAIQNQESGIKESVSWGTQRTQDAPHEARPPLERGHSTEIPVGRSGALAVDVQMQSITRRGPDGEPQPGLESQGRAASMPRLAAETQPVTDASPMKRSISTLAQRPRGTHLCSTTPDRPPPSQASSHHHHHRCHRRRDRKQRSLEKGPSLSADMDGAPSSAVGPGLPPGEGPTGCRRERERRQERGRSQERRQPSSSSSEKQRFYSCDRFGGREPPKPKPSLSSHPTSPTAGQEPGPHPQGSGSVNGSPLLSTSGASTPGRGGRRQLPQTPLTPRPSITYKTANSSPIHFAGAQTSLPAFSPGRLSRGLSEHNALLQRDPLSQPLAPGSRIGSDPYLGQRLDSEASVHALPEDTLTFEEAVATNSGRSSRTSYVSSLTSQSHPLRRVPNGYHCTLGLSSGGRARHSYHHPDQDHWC
T1 sequence (P54289 25-956 partner limits assumed): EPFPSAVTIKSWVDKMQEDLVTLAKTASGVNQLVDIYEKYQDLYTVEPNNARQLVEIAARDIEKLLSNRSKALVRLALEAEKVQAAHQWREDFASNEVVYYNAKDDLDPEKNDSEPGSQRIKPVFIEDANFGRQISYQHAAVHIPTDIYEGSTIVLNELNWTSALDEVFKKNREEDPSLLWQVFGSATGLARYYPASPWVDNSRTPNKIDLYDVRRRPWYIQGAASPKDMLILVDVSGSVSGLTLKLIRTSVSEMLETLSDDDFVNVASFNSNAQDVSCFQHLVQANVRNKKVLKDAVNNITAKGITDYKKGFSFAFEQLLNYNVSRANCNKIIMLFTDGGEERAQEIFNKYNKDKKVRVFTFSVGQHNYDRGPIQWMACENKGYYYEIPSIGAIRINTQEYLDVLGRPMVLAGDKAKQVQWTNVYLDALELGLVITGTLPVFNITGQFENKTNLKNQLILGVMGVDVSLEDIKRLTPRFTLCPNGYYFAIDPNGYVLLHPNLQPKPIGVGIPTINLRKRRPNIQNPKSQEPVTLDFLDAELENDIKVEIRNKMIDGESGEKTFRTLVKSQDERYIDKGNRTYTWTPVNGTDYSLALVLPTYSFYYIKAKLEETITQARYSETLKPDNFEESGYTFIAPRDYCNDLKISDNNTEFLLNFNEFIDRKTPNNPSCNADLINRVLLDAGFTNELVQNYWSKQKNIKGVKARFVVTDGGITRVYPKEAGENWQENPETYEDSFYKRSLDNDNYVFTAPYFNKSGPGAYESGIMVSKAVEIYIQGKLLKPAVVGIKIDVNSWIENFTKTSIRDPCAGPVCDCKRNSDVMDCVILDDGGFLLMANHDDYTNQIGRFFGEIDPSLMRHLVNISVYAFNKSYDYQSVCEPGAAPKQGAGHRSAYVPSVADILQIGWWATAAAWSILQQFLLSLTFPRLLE
T1 sequence (P54289 957-1103 partner limits assumed): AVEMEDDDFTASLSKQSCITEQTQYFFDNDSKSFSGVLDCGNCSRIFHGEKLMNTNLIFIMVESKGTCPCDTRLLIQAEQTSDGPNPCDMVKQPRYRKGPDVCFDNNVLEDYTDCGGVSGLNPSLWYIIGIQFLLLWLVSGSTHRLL
T1 sequence (Q02641 whole entry partner): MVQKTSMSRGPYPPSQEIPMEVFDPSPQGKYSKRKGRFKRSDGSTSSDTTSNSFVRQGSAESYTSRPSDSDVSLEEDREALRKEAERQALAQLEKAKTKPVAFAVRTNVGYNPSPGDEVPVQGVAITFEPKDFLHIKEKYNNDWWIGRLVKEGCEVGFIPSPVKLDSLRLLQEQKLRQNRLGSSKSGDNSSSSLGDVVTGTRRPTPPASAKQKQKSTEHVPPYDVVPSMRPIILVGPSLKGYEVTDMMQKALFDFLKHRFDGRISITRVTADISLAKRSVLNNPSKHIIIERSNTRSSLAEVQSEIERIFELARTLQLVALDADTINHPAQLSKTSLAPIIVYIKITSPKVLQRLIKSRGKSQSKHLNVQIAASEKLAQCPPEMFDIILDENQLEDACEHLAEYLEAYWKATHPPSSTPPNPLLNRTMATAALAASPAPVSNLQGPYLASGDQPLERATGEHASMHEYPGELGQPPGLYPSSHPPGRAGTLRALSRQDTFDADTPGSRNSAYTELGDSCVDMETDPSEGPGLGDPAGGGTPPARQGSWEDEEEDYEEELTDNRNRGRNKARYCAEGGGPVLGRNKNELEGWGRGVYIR
Experimental: Measurement of N-type Ca^2+ Channel Blocking Potencies of Compounds in IMR-32 Cells Using the Fluorescent Ca^2+Indicator Indo-1
IMR-32 cells are a human tumoral cell line of neural origin. […] Calcium flux into these cells may be induced by stimulation with elevated potassium concentrations. The L-channel component of calcium flux may be blocked by adding 5 μM nitrendipine. The remaining component of calcium entry into the IMR-32 cells is due to calcium flux through N-type calcium channels. Intracellular calcium concentrations are measured using the fluorescent calcium indicator Indo-1. The effect of drug concentration on calcium uptake is studied.
The IMR-32 cell line was obtained from the American Type Culture Collection (Rockville, Md.). Cells were grown in Eagle's Minimum Essential Medium with Earle's salts supplemented with 10% fetal bovine serum, 2 mM L-Gln and antibiotic/antimycotic mixture (Gibco). […] After 7 to 13 days of differentiation, cells were detached using 0.5 mM EDTA and loaded with 5 μM Indo-1 acetoxymethyl ester (Molecular Probes, Eugene, Oreg.) at 30° C. for 45 minutes. Loaded cells were washed twice, resuspended (˜10^7 cells/mL) in assay buffer (10 mM HEPES/Tris pH 7.4 in Hank's Balanced Salt Solution without bicarbonate or phenol red containing 0.5% bovine serum albumin) and kept on ice until use. Fluorescence measurements were carried out in a Photon Technology International (PTI, South Brunswick, N.J.) Model RF-F3004 spectrofluorometer with dual emission monochromators using excitation at […] and emission at 400 and 490 nm. The instrument was equipped with a thermostated cuvette holder with stirring capabilities as well as with a computer-controlled pump which allowed for reagent addition during measurement. Instrument control and data collection was done by PTI's OSCAR software running on an IBM compatible computer. Different concentrations of the test compounds (60 μL in dimethyl sulfoxide) were added to 5.94 mL of assay buffer containing approximately 3×10^6 loaded cells, and 5 μM Nitrendipine (in […] EtOH) to block L-type Ca^2+ channels. Samples were incubated for 10 minutes at 30° C. and then aliquoted into three 10×10 mm disposable acrylic cuvettes. Emission signals at 400 and 490 nm were acquired from each cuvette at 30° C. for 50 seconds. At 20 seconds after the start of reading, cells were depolarized by the addition of 160 μL of stimulation solution (1 M KCl, 68 mM CaCl2) to the cuvette via the computer-controlled pump. Ratio of dual emission signals (400 nm/490 nm), which is proportional to intracellular Ca^2+ concentration, was plotted against time, and the difference between maximal response after stimulation and basal value (before stimulation) was determined. Values obtained in this way were plotted as a function of drug concentration. IC50 values of test compounds were calculated by fitting a four-parameter logistic function to the data using the least squares method.

[1] = 1 μM compound, 5 μM nitrendipine
[2] = 10 μM compound, 5 μM nitrendipine

Row | Structure (SMILES) | IC50 (N-type Ca2+ channel) [nM] | further results
1 | CC(C)=CCN(CC(C)(C)NC(=O)[C@H](CC(C)C)NC(=O)N1CCCCCC1)c1ccc(OCc2ccccc2)cc1 [Example 1] | 260 | responders at 30 mg/kg (DBA/2 mice): 60%
2 | CC(C)=CCN(c1ccc(OCc2ccccc2)cc1)C1CCN(C(=O)[C@H](CC(C)C)NC(=O)N2CCCCCC2)CC1 [Example 5, (S)-Azepane-1-carboxylic acid (1-{4-[(4-benzyloxy-phenyl)-(3-methyl-but-2-enyl)-amino]-piperidine-1-carbonyl}-3-methyl-butyl)-amide hydrochloride salt] | 500 | 
3 | CC(C)C[C@H](NC(=O)N1CCCCCC1)C(=O)NC(C)(C)CN(c1ccc(OCc2ccccc2)cc1)C1C=CCCC1 (stereo partly drawn) [Example 8, (S)-Azepane-1-carboxylic acid (1-{2-[(4-benzyloxy-phenyl)-cyclohex-2-enyl-amino]-1,1-dimethyl-ethylcarbamoyl}-3-methyl-butyl)-amide] |  | inhibition at 1 µM (N-type Ca2+ channel; [1]): 55%; inhibition at 10 µM (N-type Ca2+ channel; [2]): 76%
4 | CC(C)=CCN(CC(C)(C)NC(=O)[C@H](CC(C)C)N(C)C)c1ccc(OCc2ccccc2)cc1 [Example 9, (S)-2-Dimethylamino-4-methyl-pentanoic acid {2-[(4-benzyloxy-phenyl)-(3-methyl-but-2-enyl)-amino]-1,1-dimethyl-ethyl}-amide] | 1600 | 
5 | CC(C)=CCN(CC(C)(C)NC(=O)[C@H](CC(C)C)N(C)CCC(C)C)c1ccc(OCc2ccccc2)cc1 [Example 11, (S)-4-Methyl-2-[methyl-(3-methyl-butyl)-amino]-pentanoic acid {2-[(4-benzyloxy-phenyl)-(3-methyl-but-2-enyl)-amino]-1.1-dimethyl-ethyl}-amide] |  | IMR 32 % of Blockade @ 1 μM (N-type Ca2+ channel; [1]): 49%; IMR 32 % of Blockade @ 10 μM (N-type Ca2+ channel; [2]): 91%
6 | CC(C)=CCN(CC(C)(C)NC(=O)[C@H](CC(C)C)N(C)C1C=CCCC1)c1ccc(OCc2ccccc2)cc1 (stereo partly drawn) [Example 12, (S)-2-(Cyclohex-2-enyl-methyl-amino)-4-methyl-pentanoic acid {2-[(4-benzyloxy-phenyl)-(3-methyl-but-2-enyl)-amino]-1,1-dimethyl-ethyl}-amide] | 630 | 
7 | CC(C)=CCN(CC(C)(C)NC(=O)[C@H](CC(C)C)N(C)Cc1ccc(C(C)(C)C)cc1)c1ccc(OCc2ccccc2)cc1 [Example 13, (S)-2-[(4-tert-Butyl-benzyl)-methyl-amino]-4-methyl-pentanoic acid {2-[(4-benzyloxy-phenyl)-(3-methyl-but-2-enyl)-amino]-1.1-dimethyl-ethyl}-amide] | 5600 | 
8 | CC(C)CCN(C)[C@@H](CC(C)C)C(=O)NC(C)(C)CN(c1ccc(OCc2ccccc2)cc1)C1C=CCCC1 (stereo partly drawn) [Example 17, (S)-4-Methyl-2-[methyl-(3-methyl-butyl)-amino]-pentanoic acid {2-[(4-benzyloxy-phenyl)-cyclohex-2-enyl-amino]-1,1-dimethyl-ethyl}-amide] |  | inhibition at 1 µM (N-type Ca2+ channel; [1]): 57%; inhibition at 10 µM (N-type Ca2+ channel; [2]): 80%
9 | CC(C)=CCN(c1ccc(OCc2ccccc2)cc1)C1CCN(C(=O)[C@H](N)CC(C)C)CC1 [Example 21, (R)-2-Amino-1-{4-[(4-benzyloxy-phenyl)-(3-methyl-but-2-enyl)-amino]-piperidin-1-yl}-4-methyl-pentan-1-one] |  | inhibition at 1 µM (N-type Ca2+ channel; [1]): 43%; inhibition at 10 µM (N-type Ca2+ channel; [2]): 92%
10 | CC(C)=CCN(c1ccc(OCc2ccccc2)cc1)C1CCN(C(=O)[C@H](CC(C)C)NC(C)C)CC1 [Example 24, (S)-1-{4-[(4-Benzyloxy-phenyl)-(3-methyl-but-2-enyl)-amino]-piperidin-1-yl}-2-isopropylamino-4-methyl-pentan-1-one] | 750 | 
11 | CC(C)=CCN(c1ccc(OCc2ccccc2)cc1)C1CCN(C(=O)[C@H](CC(C)C)NC2CCCCC2)CC1 [Example 26, (S)-1-{4-[(4-Benzyloxy-phenyl)-(3-methyl-but-2-enyl)-amino]-piperidin-1-yl}-2-cyclohexylamino-4-methyl-pentan-1-one] | 510 | 
12 | CC(C)=CCN(c1ccc(OCc2ccccc2)cc1)C1CCN(C(=O)[C@H](CC(C)C)NCc2ccc[nH]2)CC1 [Example 27, (S)-1-{4-[(4-Benzyloxy-phenyl)-(3-methyl-but-2-enyl)-amino]-piperidin-1-yl}-4-methyl-2-[(1H-pyrrol-2-ylmethyl)-amino]-pentan-1-one] | 390 | 
13 | CC(C)C[C@H](NC(=O)N1CCCCCC1)C(=O)N1CCC(Nc2ccc(OCc3ccccc3)cc2)CC1 [Example 28, (S)-Azepane-1-carboxylic acid {1-[4-(4-benzyloxy-phenylamino)-piperidine-1-carbonyl]-3-methyl-butyl}-amide] | 2500 | 
14 | CCN(c1ccc(OCc2ccccc2)cc1)C1CCN(C(=O)[C@H](CC(C)C)NC(=O)N2CCCCCC2)CC1 [Example 30, (S)-Azepane-1-carboxylic acid (1-{4-[(4-benzyloxy-phenyl)-ethyl-amino]-piperidine-1-carbonyl}-3-methyl-butyl)-amide] | 830 | 
15 | CC(C)C[C@H](NC(=O)N1CCCCCC1)C(=O)N1CCC(N(Cc2ccccc2)c2ccc(OCc3ccccc3)cc2)CC1 [Example 31, (S)-Azepane-1-carboxylic acid (1-{4-[benzyl-(4-benzyloxy-phenyl)-amino]-piperidine-1-carbonyl}-3-methyl-butyl)-amide] | 430 | 
16 | CC(C)=CCN(c1ccc(NC(=O)OCc2ccccc2)cc1)C1CCN(C(=O)[C@H](CC(C)C)NC(=O)N2CCCCCC2)CC1 [Example 33, (S)-{4-[(1-{2-[(Azepane-1-carbonyl)-amino]-4-methyl-pentanoyl}-piperidin-4-yl)-(3-methyl-but-2-enyl)-amino]-phenyl}-carbamic acid benzyl ester] | 170 | 
17 | CC(C)CCN(c1ccc(NC(=O)OCc2ccccc2)cc1)C1CCN(C(=O)[C@H](CC(C)C)NC(=O)N2CCCCCC2)CC1 [Example 34, (S)-{4-[(1-{2-[(Azepane-1-carbonyl)-amino]-4-methyl-pentanoyl}-piperidin-4-yl)-(3-methyl-butyl)-amino]-phenyl}-carbamic acid benzyl ester] |  | inhibition at 1 µM (N-type Ca2+ channel; [1]): 83%
18 | CC(C)CCN(c1ccc(NCC2CCCCC2)cc1)C1CCN(C(=O)[C@H](CC(C)C)NC(=O)N2CCCCCC2)CC1 [Example 37, (S)-Azepane-1-carboxylic acid (1-{4-[[4-(Cyclohexylmethyl-amino)-phenyl]-(3-methyl-butyl)-amino]-piperidine-1-carbonyl}-3-methyl-butyl)-amide] | 290 | 
19 | CC(C)CCN(c1ccc(NCc2ccccc2)cc1)C1CCN(C(=O)[C@H](CC(C)C)NC(=O)N2CCCCCC2)CC1 [Example 39, (S)-Azepane-1-carboxylic acid (1-{4-[(4-benzylamino-phenyl)-(3-methyl-butyl)-amino]-piperidine-1-carbonyl}-3-methyl-butyl)-amide] | 400 | 
20 | CC(C)CCN(c1ccc(NCc2ccccn2)cc1)C1CCN(C(=O)[C@H](CC(C)C)NC(=O)N2CCCCCC2)CC1 [Example 40] | 1100 | 
